Molecular target: T1, human recombinant adrenergic α2B receptor (Homo sapiens, UniProt P18089)
T1 construct: expressed in transfected cells; host or cells: CHO-K1 cells
T1 sequence (P18089 1-450): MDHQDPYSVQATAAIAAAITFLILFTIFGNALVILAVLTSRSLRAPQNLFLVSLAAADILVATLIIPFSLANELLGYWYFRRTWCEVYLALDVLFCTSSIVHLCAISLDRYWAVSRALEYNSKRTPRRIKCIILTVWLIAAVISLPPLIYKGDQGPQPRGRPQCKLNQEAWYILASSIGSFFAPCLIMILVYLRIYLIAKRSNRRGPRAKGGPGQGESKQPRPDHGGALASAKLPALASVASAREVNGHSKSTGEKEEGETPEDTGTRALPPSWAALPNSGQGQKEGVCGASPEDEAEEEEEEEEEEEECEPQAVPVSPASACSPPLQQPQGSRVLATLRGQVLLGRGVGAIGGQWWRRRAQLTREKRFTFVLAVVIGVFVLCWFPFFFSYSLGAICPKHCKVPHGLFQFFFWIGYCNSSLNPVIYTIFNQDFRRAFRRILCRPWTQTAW
Experiment: Adrenergic alpha2B radioligand binding ([3H]Rauwolscine)
Details: compound at 1 μM; read-out: Adrenergic (1 μM) α2B, percent inhibition of specific binding
Method: To evaluate in radioligand binding assays the activity of compounds of the invention, human recombinant adrenergic α2B receptor expressed in Chinese hamster ovary (CHO-K1) cells (Uhlen S et al. Eur J. Pharmacol. 343(1):93, 1998) in a modified Tris-HCl buffer (50 mM Tris-HCl, pH 7.4, 12.5 mM MgCl2, 1 mM EDTA, 0.2% BSA) was used. Compounds of the invention were incubated with 2.5 nM [^3H]Rauwolscine for 60 min. at 25° C. Non-specific binding was estimated in the presence of 10 μM Prozosin. Receptor proteins were filtered and washed, the filters were then counted to determine [^3H]Rauwolscine specifically bound. Compounds were screened at 1 μM or lower, using 1% DMSO as vehicle. Biochemical assay results are presented as the percent inhibition of specific binding in Table 5.

Compound	inhibition at 1 µM
Cc1ccc2c(c1)c1c(n2CC(=O)N2CCCCC2)CCN(C)CC1 [Compound No. 32, 2-(2,3,4,5-tetrahydro-3,9-dimethylazepino[4,5-b]indol-6(1H)-yl)-1-(piperidin-1-yl)ethanone]	22%
C/C(=C\n1c2c(c3cc(C)ccc31)CCN(C)CC2)c1ccc(Cl)cc1 [Compound No. 33, 6-((E)-2-(4-chlorophenyl)prop-1-enyl)-1,2,3,4,5,6-hexahydro-3,9-dimethylazepino[4,5-b]indole]	103%
C/C(=C\n1c2c(c3cc(C)ccc31)CCN(C)CC2)c1ccc(F)cc1 [Compound No. 34, 6-((E)-2-(4-fluorophenyl)prop-1-enyl)-1,2,3,4,5,6-hexahydro-3,9-dimethylazepino[4,5-b]indole]	110%
C=C(Cn1c2c(c3cc(Cl)ccc31)CCN(C)CC2)c1ccc(Cl)cc1 [Compound No. 35, 9-chloro-6-(2-(4-chlorophenyl)allyl)-3-methyl-1,2,3,4,5,6-hexahydroazepino[4,5-b]indole]	112%
C/C(=C\n1c2c(c3cc(Cl)ccc31)CCN(C)CC2)c1ccc(Cl)cc1 [Compound No. 36, 9-chloro-6-((E)-2-(4-chlorophenyl)prop-1-enyl)-1,2,3,4,5,6-hexahydro-3-methylazepino[4,5-b]indole]	101%
CN1CCc2c(n(CC(=O)Nc3ccc(F)cc3)c3ccc(Cl)cc23)CC1 [Compound No. 37, 2-(9-chloro-2,3,4,5-tetrahydro-3-methylazepino[4,5-b]indol-6(1H)-yl)-N-(4-fluorophenyl) acetamide]	70%
Cc1ccc2c(c1)c1c(n2CC(=O)N2CCOCC2)CCN(C)CC1 [Compound No. 38, 2-(2,3,4,5-tetrahydro-3,9-dimethylazepino[4,5-b]indol-6(1H)-yl)-1-morpholinoethanone]	83%
Cc1ccc2c(c1)c1c(n2/C=C/c2ccc(F)cc2)CCN(C)CC1 [Compound No. 39, 6-(4-fluorostyryl)-1,2,3,4,5,6-hexahydro-3,9-dimethylazepino[4,5-b]indole]	105%
CN1CCc2c(n(CC(O)c3ccccc3F)c3ccc(Cl)cc23)CC1 (stereo not shown) [Compound No. 40, 2-(9-chloro-2,3,4,5-tetrahydro-3-methylazepino[4,5-b]indol-6(1H)-yl)-1-(2-fluorophenyl)ethanol]	101%
Cc1ccc2c(c1)c1c(n2CC(O)c2ccccc2F)CCN(C)CC1 (stereo not shown) [Compound No. 41, 1-(2-fluorophenyl)-2-(2,3,4,5-tetrahydro-3,9-dimethylazepino[4,5-b]indol-6(1H)-yl)ethanol]	104%
CN1CCc2c(n(CC(O)c3ccncc3)c3ccc(Cl)cc23)CC1 (stereo not shown) [Compound No. 42, 2-(9-chloro-2,3,4,5-tetrahydro-3-methylazepino[4,5-b]indol-6(1H)-yl)-1-(pyridin-4-yl)ethanol]	107%
Cc1ccc2c(c1)c1c(n2CC(O)c2ccncc2)CCN(C)CC1 (stereo not shown) [Compound No. 43, 2-(2,3,4,5-tetrahydro-3,9-dimethylazepino[4,5-b]indol-6(1H)-yl)-1-(pyridin-4-yl)ethanol]	107%
Cc1ccc2c(c1)c1c(n2CC(=O)Nc2ccc(F)cc2)CCN(C)CC1 [Compound No. 44, N-(4-fluorophenyl)-2-(2,3,4,5-tetrahydro-3,9-dimethylazepino[4,5-b]indol-6(1H)-yl)acetamide]	12%
Cc1ccc2c(c1)c1c(n2CC(=O)N2CCCC2)CCN(C)CC1 [Compound No. 45, 2-(2,3,4,5-tetrahydro-3,9-dimethylazepino[4,5-b]indol-6(1H)-yl)-1-(pyrrolidin-1-yl)ethanone]	9%
Cc1ccc(CCn2c3c(c4cc(Cl)ccc42)CCN(C)CC3)cc1 [Compound No. 46, 9-chloro-3-methyl-6-(4-methylphenethyl)-1,2,3,4,5,6-hexahydroazepino[4,5-b]indole]	107%
COc1ccc(C(O)Cn2c3c(c4cc(Cl)ccc42)CCN(C)CC3)cc1 (stereo not shown) [Compound No. 47, 2-(9-chloro-2,3,4,5-tetrahydro-3-methylazepino[4,5-b]indol-6(1H)-yl)-1-(4-methoxyphenyl)ethanol]	105%
COc1ccc(C(O)Cn2c3c(c4cc(C)ccc42)CCN(C)CC3)cc1 (stereo not shown) [Compound No. 48, 2-(2,3,4,5-tetrahydro-3,9-dimethylazepino[4,5-b]indol-6(1H)-yl)-1-(4-methoxyphenyl) ethanol]	103%

Compound	inhibition at 1 µM
COc1ccc(C(O)Cn2c3c(c4cc(Cl)ccc42)CCN(C)CC3)c(F)c1 (stereo not shown) [Compound No. 49, 2-(9-chloro-2,3,4,5-tetrahydro-3-methylazepino[4,5-b]indol-6(1H)-yl)-1-(2-fluoro-4-methoxyphenyl) ethanol]	106%
COc1ccc(C(O)Cn2c3c(c4cc(C)ccc42)CCN(C)CC3)c(F)c1 (stereo not shown) [Compound No. 50, 1-(2-fluoro-4-methoxyphenyl)-2-(2,3,4,5-tetrahydro-3,9-dimethylazepino[4,5-b]indol-6(1H)-yl)ethanol]	102%
CN1CCc2c(n(CC(O)c3ccc(F)cc3)c3ccc(Cl)cc23)CC1 (stereo not shown) [Compound No. 51, 2-(9-chloro-2,3,4,5-tetrahydro-3-methylazepino[4,5-b]indol-6(1H)-yl)-1-(4-fluorophenyl) ethanol]	103%
Cc1ccc2c(c1)c1c(n2CC(O)c2ccc(F)cc2)CCN(C)CC1 (stereo not shown) [Compound No. 52, 1-(4-fluorophenyl)-2-(2,3,4,5-tetrahydro-3,9-dimethylazepino[4,5-b]indol-6(1H)-yl)ethanol]	103%
CN1CCc2c(n(CC(=O)N3CCCC3)c3ccc(Cl)cc23)CC1 [Compound No. 53, 2-(9-chloro-2,3,4,5-tetrahydro-3-methylazepino[4,5-b]indol-6(1H)-yl)-1-(pyrrolidin-1-yl)ethanone]	3%
Cc1ccc2c(c1)c1c(n2CC(=O)NC(C)C)CCN(C)CC1 [Compound No. 54, 2-(2,3,4,5-tetrahydro-3,9-dimethylazepino[4,5-b]indol-6(1H)-yl)-N-isopropylacetamide]	1%
Cc1ccc2c(c1)c1c(n2CC(=O)OC2CCCC2)CCN(C)CC1 [Compound No. 55, Cyclopentyl-2-(2,3,4,5-tetrahydro-3,9-dimethylazepino[4,5-b]indol-6(1H)-yl)acetate]	7%
CN1CCc2c(n(CCc3ccccc3)c3ccc(Cl)cc23)CC1 [Compound No. 56, 9-chloro-1,2,3,4,5,6-hexahydro-3-methyl-6-phenethylazepino[4,5-b]indole]	91%
CN1CCc2c(n(CC(=O)N3CCCCC3)c3ccc(Cl)cc23)CC1 [Compound No. 57, 2-(9-chloro-2,3,4,5-tetrahydro-3-methylazepino[4,5-b]indol-6(1H)-yl)-1-(piperidin-1-yl)ethanone]	87%
CN1CCc2c(n(CC(O)c3ccc(F)c(F)c3)c3ccc(Cl)cc23)CC1 (stereo not shown) [Compound No. 58, 2-(9-chloro-2,3,4,5-tetrahydro-3-methylazepino[4,5-b]indol-6(1H)-yl)-1-(3,4-difluorophenyl)ethanol]	10%
Cc1ccc2c(c1)c1c(n2CC(O)c2ccc(F)cc2F)CCN(C)CC1 (stereo not shown) [Compound No. 59, 1-(2,4-difluorophenyl)-2-(2,3,4,5-tetrahydro-3,9-dimethylazepino[4,5-b]indol-6(1H)-yl)ethanol]	9%
CN1CCc2c(n(CC(=O)N3CCOCC3)c3ccc(Cl)cc23)CC1 [Compound No. 60, 2-(9-chloro-2,3,4,5-tetrahydro-3-methylazepino[4,5-b]indol-6(1H)-yl)-1-morpholinoethanone]	53%
CN1CCc2c(n(CCc3ccccc3F)c3ccc(Cl)cc23)CC1 [Compound No. 61, 6-(2-fluorophenethyl)-9-chloro-1,2,3,4,5,6-hexahydro-3-methylazepino[4,5-b]indole]	103%
Cc1ccc2c(c1)c1c(n2CCc2ccccc2)CCN(C)CC1 [Compound No. 62, 1,2,3,4,5,6-hexahydro-3,9-dimethyl-6-phenethylazepino[4,5-b]indole]	98%
Cc1ccc2c(c1)c1c(n2CCc2ccccc2F)CCN(C)CC1 [Compound No. 63, 6-(2-fluorophenethyl)-1,2,3,4,5,6-hexahydro-3,9-dimethylazepino[4,5-b]indole]	73%
COc1ccc(C(O)Cn2c3c(c4cc(Cl)ccc42)CCN(C)CC3)cc1F (stereo not shown) [Compound No. 67, 2-(9-chloro-2,3,4,5-tetrahydro-3-methylazepino[4,5-b]indol-6(1H)-yl)-1-(3-fluoro-4-methoxyphenyl) ethanol]	99%
COc1ccc(C(O)Cn2c3c(c4cc(C)ccc42)CCN(C)CC3)cc1F (stereo not shown) [Compound No. 68, 1-(3-fluoro-4-methoxyphenyl)-2-(2,3,4,5-tetrahydro-3,9-dimethylazepino[4,5-b]indol-6(1H)-yl)ethanol]	100%
